{"source": "patent US20180098959A1", "about": "“METHODS FOR TREATING CANCER” (BOSTON BIOMEDICAL, INC., priority 2015, published 2018)", "key": {"[1]": {"tested_on": "cancer stem cells", "experiment": "effects on cancer stem cells with and without 5-fluorouracil", "format": "cell-based", "conditions": "FIG. 7", "excerpt": "The effects on cancer stem cells of 2-acetylnaphtho[2,3-b]furan-4,9-dione was also examined with and without 5-fluorouracil by using methods similar to those disclosed in U.S. pre-grant Publication No. 2012/0252763, Example 3."}, "[2]": {"tested_on": "FaDu cancer stem cells", "experiment": "stemness gene expression versus chemo- and targeted therapeutics", "format": "cell-based", "conditions": "24 hours, 2-acetylnaphtho[2,3-b]furan-4,9-dione 2 mM, sunitinib 20 mM, gemcitabine 2 mM, carboplatin 32 mM, FIGS. 4(A)-(D)", "experimental": "FIGS. 4(A)-(D) depict FaDu cancer stem cells that were treated for 24 hours with DMSO and: (i) 2-acetylnaphtho[2,3-b]furan-4,9-dione (2 mM) (FIG. 4(A)), (ii) sunitinib (20 mM) (FIG. 4(B)), (iii) gemcitabine (2 mM) (FIG. 4(C)), or (iv) carboplatin (32 mM) (FIG. 4(D))."}, "[3]": {"tested_on": "mCRC", "conditions": "Single Agent, panitumumab value for K-Ras WT, cited from earlier work"}, "[4]": {"tested_on": "p-Stat3 and β-catenin", "experiment": "cancer stem cell markers in cancer xenograft models (immunofluorescence)", "format": "in vivo, athymic nude mice", "conditions": "cancer xenograft tumor model, tumors harvested after first dosing; FIG. 6", "experimental": "The effects of 2-acetylnaphtho[2,3-b]furan-4,9-dione on cancer stem cell markers was also examined in cancer xenograft models with and without irinotecan. Human cancer cells were subcutaneously implanted into the right flank of 5-7 weeks old female athymic nude mice. When tumor size reached 200 mm^3, animals were treated with 2-acetylnaphtho[2,3-b]furan-4,9-dione, irinotecan, or a combination of 2-acetylnaphtho[2,3-b]furan-4,9-dione and irinotecan. Tumors were harvested after first dosing.\nThe harvested tissues were fixed in 3.7% neutral buffered formaldehyde at 4° C. for overnight. The paraffin was embedded, cut to about 5 microns, and affixed onto positively charged slides. After being baked and de-paraffinized, the slides with tumor or control tissues were incubated in 10 mM Sodium Citrate (pH 6.0) for 10 minutes. After antigen retrieval, slides were probed with primary antibodies P-STAT3 (rabbit, Cell Signaling, 1:100), 13-Catenine (mouse, Santa Cruz, 1:400) at 4° C. overnight, and then Alexa Fluor fluorescent dyes-conjugated secondary antibodies (1:500, Invitrogen). After mounting with ProLong mounting medium with DAPI (Invitrogen), the slides were examined under a Zeiss fluorescence microscope with 20× objective, and analyzed with Zen software."}}, "note": "“Also recorded” adds a separate entry of the source. Like-named read-outs stand apart in the source and are kept apart here."}
{"compound": "5-fluorouracil and 2-acetylnaphtho[2,3-b]furan-4,9-dione", "values": [{"measurement": "effect of the combination on cancer stem cells / cancer stem cell growth", "setting": "[1]; versus 5-fluorouracil alone and both agents alone", "result": "attenuated; also recorded: greater than additive effect"}]}
{"compound": "O=c1[nH]cc(F)c(=O)[nH]1", "note": "[5-fluorouracil, reference compound]", "values": [{"measurement": "expression of self-renewal / CSC genes (β-Catenin, Nanog, Smo, Sox2)", "setting": "[2]", "result": "increased CSC gene expression in certain cases"}, {"measurement": "increase in the number of cancer stem cells compared to control cells", "setting": "[1]", "result": "approximately 3 fold"}]}
{"compound": "CCCCCOC(=O)Nc1nc(=O)n([C@@H]2O[C@H](C)[C@@H](O)[C@H]2O)cc1F", "note": "[Capecitabine, capecitabine]", "values": [{"measurement": "Historical DCR (in Evaluable patients with mCRC)", "setting": "[3]", "result": 15, "unit": "%"}, {"measurement": "Historical DCR (in Evaluable patients with mCRC)", "setting": "[3]; listed as capecitabine", "result": 15, "unit": "%"}]}
{"compound": "N.N.O=C([O-])C1(C(=O)[O-])CCC1.[Pt+2]", "note": "[carboplatin]", "values": [{"measurement": "expression of self-renewal / CSC genes (β-Catenin, Nanog, Smo, Sox2)", "setting": "[2]", "result": "increased CSC gene expression in certain cases"}]}
{"compound": "Nc1ccn([C@@H]2O[C@H](CO)[C@@H](O)C2(F)F)c(=O)n1", "note": "[gemcitabine]", "values": [{"measurement": "expression of self-renewal / CSC genes (β-Catenin, Nanog, Smo, Sox2)", "setting": "[2]", "result": "increased CSC gene expression in certain cases"}]}
{"compound": "CCc1c2c(nc3ccc(OC(=O)N4CCC(N5CCCCC5)CC4)cc13)-c1cc3c(c(=O)n1C2)COC(=O)[C@]3(O)CC", "note": "[irinotecan, reference compound]", "values": [{"measurement": "expression of self-renewal / CSC genes (β-Catenin, Nanog, Smo, Sox2)", "setting": "[2]", "result": "increased CSC gene expression in certain cases"}, {"measurement": "staining for stem cell markers (p-Stat3 and β-catenin)", "setting": "[4]", "result": "enhanced staining"}]}
{"compound": "O=C1[O][Pt]2([NH][C@@H]3CCCC[C@H]3[NH]2)[O]C1=O", "note": "[oxaliplatin]", "values": [{"measurement": "expression of self-renewal / CSC genes (β-Catenin, Nanog, Smo, Sox2)", "setting": "[2]", "result": "increased CSC gene expression in certain cases"}]}
{"compound": "CNC(=O)c1cc(Oc2ccc(NC(=O)Nc3ccc(Cl)c(C(F)(F)F)c3)c(F)c2)ccn1", "note": "[regorafenib]", "values": [{"measurement": "expression of self-renewal / CSC genes (β-Catenin, Nanog, Smo, Sox2)", "setting": "[2]", "result": "increased CSC gene expression in certain cases"}]}
{"compound": "panitumumab", "values": [{"measurement": "Historical DCR (in Evaluable patients with mCRC)", "setting": "[3]", "result": "30-40% (K-Ras WT)"}, {"measurement": "Historical DCR (in Evaluable patients with mCRC)", "setting": "[3]; listed as panitumumab", "result": "30-40%"}]}
